{"source": "ChEMBL document CHEMBL4190372", "about": "“Discovery of a Novel Oral Glucocorticoid Receptor Modulator (AZD9567) with Improved Side Effect Profile” (J Med Chem, 2018)", "key": {"Glucocorticoid receptor [1]": {"biological_target": "T1, Glucocorticoid receptor (Rattus norvegicus, UniProt P06536)", "T1 sequence (P06536 whole entry)": "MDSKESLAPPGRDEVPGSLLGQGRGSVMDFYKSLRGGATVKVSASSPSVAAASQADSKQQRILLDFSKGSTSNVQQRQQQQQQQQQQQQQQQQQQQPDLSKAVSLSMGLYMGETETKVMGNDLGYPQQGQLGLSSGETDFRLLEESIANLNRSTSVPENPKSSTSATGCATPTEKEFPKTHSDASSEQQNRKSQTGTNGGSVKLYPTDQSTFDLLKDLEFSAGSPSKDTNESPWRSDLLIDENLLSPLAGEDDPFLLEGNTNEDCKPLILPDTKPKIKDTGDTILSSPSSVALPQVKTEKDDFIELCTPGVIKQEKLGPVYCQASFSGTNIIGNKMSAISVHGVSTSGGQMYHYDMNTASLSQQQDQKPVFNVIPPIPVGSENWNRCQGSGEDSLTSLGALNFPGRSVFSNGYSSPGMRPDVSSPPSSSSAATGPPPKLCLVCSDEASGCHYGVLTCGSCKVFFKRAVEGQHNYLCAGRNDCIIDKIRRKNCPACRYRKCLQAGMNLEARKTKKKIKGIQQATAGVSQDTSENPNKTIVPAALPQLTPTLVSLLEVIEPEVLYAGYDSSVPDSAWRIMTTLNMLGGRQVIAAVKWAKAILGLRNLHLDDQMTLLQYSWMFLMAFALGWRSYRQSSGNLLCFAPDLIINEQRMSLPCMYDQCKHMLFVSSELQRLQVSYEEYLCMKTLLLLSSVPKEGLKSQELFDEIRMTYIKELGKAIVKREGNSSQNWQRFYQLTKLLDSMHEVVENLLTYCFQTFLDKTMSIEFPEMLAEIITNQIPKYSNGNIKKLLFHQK", "experiment": "Modulation of glucocorticoid receptor in rat whole blood"}, "[2]": {"experiment": "Volume of distribution at steady state in Han-Wistar rat at 0.8 mg/kg, iv", "format": "ADME, organism-based", "conditions": "in vivo, read-out: Vdss; call rule not given here"}, "Rattus norvegicus": {"system": "Rattus norvegicus", "experiment": "Dose normalized AUC (0 to infinity) in Han-Wistar rat at 2.1 mg/kg, po", "format": "ADME, organism-based", "conditions": "in vivo"}, "Estrogen receptor beta": {"biological_target": "Estrogen receptor beta (Homo sapiens, UniProt Q92731)", "sequence (Q92731 whole entry)": "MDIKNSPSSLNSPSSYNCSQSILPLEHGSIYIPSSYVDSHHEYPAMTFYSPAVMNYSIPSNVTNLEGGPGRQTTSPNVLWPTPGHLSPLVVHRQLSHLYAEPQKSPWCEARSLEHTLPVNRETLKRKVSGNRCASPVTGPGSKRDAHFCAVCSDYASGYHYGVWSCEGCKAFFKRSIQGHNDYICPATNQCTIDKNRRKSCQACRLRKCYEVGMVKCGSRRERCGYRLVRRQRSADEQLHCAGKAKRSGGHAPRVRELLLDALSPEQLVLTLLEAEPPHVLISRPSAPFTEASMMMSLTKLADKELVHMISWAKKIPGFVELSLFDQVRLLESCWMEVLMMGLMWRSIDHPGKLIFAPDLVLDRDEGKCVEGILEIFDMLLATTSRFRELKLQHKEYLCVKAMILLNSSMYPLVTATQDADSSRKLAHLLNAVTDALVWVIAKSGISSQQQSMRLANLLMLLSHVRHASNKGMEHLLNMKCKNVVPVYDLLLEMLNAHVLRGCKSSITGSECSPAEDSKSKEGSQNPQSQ", "experiment": "Binding affinity to human ERbeta expressed in Sf9 cells by fluoligand binding-based fluorescence polarization method"}, "[3]": {"biological_target": "T2, Mineralocorticoid receptor (Homo sapiens, UniProt P08235)", "T2 sequence (P08235 whole entry)": "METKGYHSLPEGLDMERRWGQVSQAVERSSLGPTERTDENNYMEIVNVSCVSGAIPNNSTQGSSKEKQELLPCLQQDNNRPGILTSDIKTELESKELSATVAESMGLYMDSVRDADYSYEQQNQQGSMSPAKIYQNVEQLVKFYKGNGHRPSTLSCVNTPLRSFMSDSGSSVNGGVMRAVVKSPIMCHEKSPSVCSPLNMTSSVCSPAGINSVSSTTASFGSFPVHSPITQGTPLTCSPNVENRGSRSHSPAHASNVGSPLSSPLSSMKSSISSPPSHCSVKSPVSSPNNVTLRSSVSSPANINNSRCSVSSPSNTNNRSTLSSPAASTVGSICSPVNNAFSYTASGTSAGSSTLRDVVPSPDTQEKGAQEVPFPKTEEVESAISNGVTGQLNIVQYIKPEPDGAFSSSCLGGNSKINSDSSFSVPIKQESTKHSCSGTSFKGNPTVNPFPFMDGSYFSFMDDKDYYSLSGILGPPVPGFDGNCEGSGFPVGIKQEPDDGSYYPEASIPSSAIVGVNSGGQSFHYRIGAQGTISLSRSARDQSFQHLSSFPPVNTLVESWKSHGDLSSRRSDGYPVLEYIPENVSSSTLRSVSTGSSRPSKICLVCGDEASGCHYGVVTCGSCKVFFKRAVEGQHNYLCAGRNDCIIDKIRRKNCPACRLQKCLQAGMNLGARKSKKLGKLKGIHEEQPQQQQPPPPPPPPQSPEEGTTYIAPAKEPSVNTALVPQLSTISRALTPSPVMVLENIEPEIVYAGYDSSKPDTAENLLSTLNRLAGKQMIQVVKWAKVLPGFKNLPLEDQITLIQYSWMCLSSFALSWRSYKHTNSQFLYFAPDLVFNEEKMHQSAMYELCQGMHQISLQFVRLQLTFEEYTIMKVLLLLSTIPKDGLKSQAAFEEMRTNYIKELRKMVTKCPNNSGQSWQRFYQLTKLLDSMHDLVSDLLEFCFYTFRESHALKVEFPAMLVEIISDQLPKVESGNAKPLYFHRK", "experiment": "Displacement of [3H]-aldosterone from human mineralocorticoid receptor LBD (729 to 984 residues) after 1 hr by scintillation proximity assay"}, "Glucocorticoid receptor [4]": {"biological_target": "T3, Glucocorticoid receptor (Homo sapiens, UniProt P04150)", "T3 sequence (P04150 whole entry)": "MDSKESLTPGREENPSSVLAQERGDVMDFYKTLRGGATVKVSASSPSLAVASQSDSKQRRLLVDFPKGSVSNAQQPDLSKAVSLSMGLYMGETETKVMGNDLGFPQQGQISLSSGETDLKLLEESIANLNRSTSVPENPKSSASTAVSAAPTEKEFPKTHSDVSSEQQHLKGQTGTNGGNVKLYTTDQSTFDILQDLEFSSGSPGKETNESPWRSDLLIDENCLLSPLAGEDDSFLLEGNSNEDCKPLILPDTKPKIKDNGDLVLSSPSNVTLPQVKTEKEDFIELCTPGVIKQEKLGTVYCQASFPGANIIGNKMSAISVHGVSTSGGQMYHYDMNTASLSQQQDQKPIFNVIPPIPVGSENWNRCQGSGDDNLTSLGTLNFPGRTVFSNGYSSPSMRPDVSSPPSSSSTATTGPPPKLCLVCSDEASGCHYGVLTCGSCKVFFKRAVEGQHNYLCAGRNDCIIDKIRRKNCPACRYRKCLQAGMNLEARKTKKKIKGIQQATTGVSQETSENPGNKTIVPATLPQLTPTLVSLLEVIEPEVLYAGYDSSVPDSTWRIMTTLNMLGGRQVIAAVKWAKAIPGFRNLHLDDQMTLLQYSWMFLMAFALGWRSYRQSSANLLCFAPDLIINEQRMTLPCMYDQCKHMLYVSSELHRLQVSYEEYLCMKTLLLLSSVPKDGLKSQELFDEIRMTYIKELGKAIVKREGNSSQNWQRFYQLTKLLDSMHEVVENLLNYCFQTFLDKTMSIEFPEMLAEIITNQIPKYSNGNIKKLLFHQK", "experiment": "Transactivation of GR in cryopreserved human primary hepatocytes assessed as upregulation of TAT mRNA expression level up to 1 uM after 18 hrs by RT-qPCR analysis"}, "Glucocorticoid receptor [5]": {"biological_target": "T3, Glucocorticoid receptor", "description": "(§1) Transrepression of GR in human whole blood assessed as inhibition of LPS-induced TNF-alpha release preincubated for 45 mins followed by LPS addition after 18 hrs by AlphaLISA method"}, "Glucocorticoid receptor [6]": {"biological_target": "T3, Glucocorticoid receptor", "remark": "listed apart in the source", "description": "Transrepression activity at glucocorticoid receptor (unknown origin) expressed in human ChaGoK1 cells assessed as inhibition of PMA-stimulated gene expression incubated for 24 hrs by beta-galactosidase reporter gene assay"}, "[7]": {"biological_target": "T4, Glucocorticoid receptor (Homo sapiens) (UniProt P04150)", "T4 sequence (whole entry)": "T3 sequence (P04150 whole entry)", "description": "as §1"}, "[8]": {"experiment": "Oral bioavailability in Han-Wistar rat at […]", "format": "ADME, organism-based", "conditions": "in vivo"}}}
{"smiles": "CC(C)[C@H](NC(=O)C(C)(F)F)[C@H](Oc1ccc2c(cnn2-c2ccc(=O)n(C)c2)c1)c1ccccc1", "note": "[MIZACORAT]", "values": [{"measurement": "IC50", "setting": "Glucocorticoid receptor [1]", "result": 19, "unit": "nM"}, {"measurement": "Vd", "setting": "[2]", "result": 0.66, "unit": "L/kg"}, {"measurement": "AUC/dose", "setting": "Rattus norvegicus", "result": 5.2, "unit": "µM·h"}, {"measurement": "IC50", "setting": "Estrogen receptor beta", "result": "> 100000", "unit": "nM"}, {"measurement": "IC50", "setting": "[3]", "result": "> 38000", "unit": "nM"}, {"measurement": "Activity", "setting": "Glucocorticoid receptor [4]", "result": "Not Active"}, {"measurement": "IC50", "setting": "Glucocorticoid receptor [5]", "result": 680, "unit": "nM"}, {"measurement": "IC50", "setting": "Glucocorticoid receptor [6]", "result": 7, "unit": "nM"}, {"measurement": "fIC30", "setting": "[7]", "result": 1.4, "unit": "nM"}, {"measurement": "bioavailability", "setting": "[8]", "result": 52, "unit": "%"}]}
